Laboratory results published in publication PMC10489644, “In Vitro Evaluation of the Potential for Drug Interactions by Salidroside” (Nutrients, 2023).

Legend:
CYP1A2 = assay: in vitro; settings: human; for % of Positive Control / Mean Enzyme Activity: 48 h
Description: (§1) The sandwich medium was removed, and the hepatocytes were treated with incubation solutions containing salidroside (1, 5, 10, and 30 µM), vehicle (0.1% DMSO), or positive inducers in triplicate for 24 h after the cultures were established. The incubation solution was aspirated and replaced with incubation solution containing the same concentrations of salidroside, vehicle, or positive inducers for an additional 24 h. The total treatment period was 48 h. After the treatment period of 48 h, the incubation solution was aspirated. Hepatocytes were washed twice with pre-warmed HBSS containing 10 mM HEPES (HBSS I) and then the remaining solution was aspirated. Hepatocytes were washed once with pre-warmed HBSS I and incubated with 140 μL of RLT (lysis buffer from RNeasy 96 Kit) supplemented with 1% β-mercaptoethanol. Plates were then stored at −70 °C in a freezer until RNA analysis. Before RNA extraction, the frozen plate was thawed, and cell lysates were transferred to 96-well plates. RNA isolation was performed using a QIAcube RNA extraction system. Reverse transcription was performed to obtain cDNA. Quantification of the selective genes by real-time quantitative polymerase chain reaction (qPCR) was performed with TaqMan universal PCR Master Mix on the Bio-rad CFX384 TouchTM Real-Time PCR System. The relative change in the mRNA level of the selected target genes induced by each test compound was expressed in relation to the vehicle control sample, and fold changes in gene expression were determined by the ΔΔCt method.
(§2) Enzyme activity (%) = PAR with compound/PAR vehicle × 100.

CYP2B6 [1] = assay: in vitro; settings: human; for % of Positive Control / Mean Enzyme Activity: 48 h
Description: as §1, §2

CYP2B6 [2] = target: T1, CYP2B6 (Homo sapiens, UniProt P20813); assay: biochemical
T1 sequence (P20813 1-491): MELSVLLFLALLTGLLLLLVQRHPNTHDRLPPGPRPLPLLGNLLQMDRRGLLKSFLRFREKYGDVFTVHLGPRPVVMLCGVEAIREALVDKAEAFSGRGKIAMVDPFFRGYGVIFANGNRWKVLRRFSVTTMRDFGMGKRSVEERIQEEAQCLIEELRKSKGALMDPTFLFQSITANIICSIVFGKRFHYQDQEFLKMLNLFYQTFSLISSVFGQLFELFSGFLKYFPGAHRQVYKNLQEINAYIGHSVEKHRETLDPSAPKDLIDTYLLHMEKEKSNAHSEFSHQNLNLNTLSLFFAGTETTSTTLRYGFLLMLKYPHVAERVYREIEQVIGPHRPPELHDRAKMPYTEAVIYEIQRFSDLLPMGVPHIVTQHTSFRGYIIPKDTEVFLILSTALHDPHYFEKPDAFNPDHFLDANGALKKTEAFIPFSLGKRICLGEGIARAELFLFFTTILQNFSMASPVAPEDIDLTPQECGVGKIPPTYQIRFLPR

CYP2C9 = CYP2C9 (Homo sapiens, UniProt P11712); assay: Time-dependent inhibition (IC50 shift) in human liver microsomes
[3] = system: rat CYP enzymes (probe drug cocktail); parameters: method as in PMID 29796228; settings: salidroside 30 mg/kg/day, eight daily doses, day 8; cited from earlier work
CYP2C19 = CYP2C19 (Homo sapiens, UniProt P33261); assay: Time-dependent inhibition (IC50 shift) in human liver microsomes
CYP2C19, sequence (P33261 whole entry): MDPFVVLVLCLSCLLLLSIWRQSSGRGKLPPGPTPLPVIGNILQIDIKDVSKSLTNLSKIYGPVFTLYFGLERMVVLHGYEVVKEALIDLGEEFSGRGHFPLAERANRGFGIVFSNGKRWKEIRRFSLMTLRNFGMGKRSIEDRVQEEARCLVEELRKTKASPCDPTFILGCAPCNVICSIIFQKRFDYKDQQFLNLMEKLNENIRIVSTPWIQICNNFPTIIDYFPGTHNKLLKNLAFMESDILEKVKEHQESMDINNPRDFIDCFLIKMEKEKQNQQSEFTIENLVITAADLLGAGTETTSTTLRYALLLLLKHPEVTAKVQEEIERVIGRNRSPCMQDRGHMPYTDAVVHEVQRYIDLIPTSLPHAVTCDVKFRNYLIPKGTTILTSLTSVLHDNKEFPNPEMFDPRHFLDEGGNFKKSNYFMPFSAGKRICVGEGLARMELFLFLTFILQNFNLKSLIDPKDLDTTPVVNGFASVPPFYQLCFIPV

CYP2C9, sequence (P11712 whole entry): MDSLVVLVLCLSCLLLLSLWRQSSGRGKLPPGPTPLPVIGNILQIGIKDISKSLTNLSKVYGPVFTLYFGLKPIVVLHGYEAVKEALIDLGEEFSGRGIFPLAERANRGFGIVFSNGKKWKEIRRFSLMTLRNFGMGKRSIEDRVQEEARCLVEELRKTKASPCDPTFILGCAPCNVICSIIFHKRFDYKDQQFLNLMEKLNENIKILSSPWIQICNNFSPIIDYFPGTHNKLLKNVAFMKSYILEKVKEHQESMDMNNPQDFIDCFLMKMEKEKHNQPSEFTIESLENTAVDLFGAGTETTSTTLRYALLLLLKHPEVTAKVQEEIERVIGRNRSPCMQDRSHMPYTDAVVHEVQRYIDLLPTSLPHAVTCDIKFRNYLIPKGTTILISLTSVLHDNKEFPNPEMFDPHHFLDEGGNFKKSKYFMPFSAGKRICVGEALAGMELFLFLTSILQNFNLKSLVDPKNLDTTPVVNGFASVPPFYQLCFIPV

## OC[C@H]1O[C@@H](OCCc2ccc(O)cc2)[C@H](O)[C@@H](O)[C@@H]1O [Salidroside]
CYP1A2
  fold induction at 48 h, 0.1 µM: 0.8
  fold induction at 48 h, 1 µM: 0.66
  fold induction at 48 h, 10 µM: 0.76
CYP1A2; 0.1 µM
  % of Positive Control: −8%
  Mean Enzyme Activity: 2.18 pmol/10^6 cells/min
CYP1A2; 1 µM
  % of Positive Control: −13%
  Mean Enzyme Activity: 1.81 pmol/10^6 cells/min
CYP1A2; 10 µM
  % of Positive Control: −9%
  Mean Enzyme Activity: 2.08 pmol/10^6 cells/min
CYP2B6 [1]
  fold induction at 48 h, 0.1 µM: 0.87
  fold induction at 48 h, 1 µM: 0.58
  fold induction at 48 h, 10 µM: 0.87
CYP2B6 [1]; 0.1 µM
  % of Positive Control: −3%
  Mean Enzyme Activity: 0.77 pmol/10^6 cells/min
CYP2B6 [1]; 1 µM
  % of Positive Control: −9%
  Mean Enzyme Activity: 0.51 pmol/10^6 cells/min
CYP2B6 [1]; 10 µM
  % of Positive Control: −3%
  Mean Enzyme Activity: 0.76 pmol/10^6 cells/min
CYP2B6 [2]
  IC50: > 50 µM
CYP2C9
  IC50: > 50 µM
[3]
  decrease of losartan AUC0-∞: ≈ 2 fold
  decrease of midazolam AUC0-∞: ≈ 2 fold
CYP2C19
  IC50: > 50 µM
